Assay results published in ChEMBL document CHEMBL4715915, “Identification of madangamine A as a novel lysosomotropic agent to inhibit autophagy” (2021).
Active and inactive are the calls of the source. The calls are words filed in the database; no cut-off is given here.

What was measured:
HeLa [1] = assay: Inhibition of autophagy in human HeLa cells assessed as increase in P62 protein level at 10 nM after 24 hrs by Western blot analysis; format: functional, cell-based
HeLa [2] = assay: Induction of autophagosome formation in human HeLa cells assessed as increase in LC3 puncta at 10 nM after 24 hrs by Alexa Fluor 488 staining based fluorescence microscopic analysis; format: functional, cell-based
HeLa [3] = assay: Inhibition of autophagy in human HeLa cells assessed as increase in lysosomal pH at 10 nM after 24 hrs by LysoTracker Red DND-99 staining based fluorescence microscopic method; format: functional, cell-based
HeLa [4] = assay: Induction of autophagy in human HeLa cells assessed as decrease in P62 protein level at 1 uM after 24 hrs by Western blot analysis; format: functional, cell-based
HeLa [5] = assay: Inhibition of autophagy in human HeLa cells assessed as increase in lysosomal pH at 10 uM after 24 hrs by LysoTracker Red DND-99 staining based fluorescence microscopic method; format: functional, cell-based
HeLa [6] = assay: Modulation of autophagy in human HeLa cells assessed as increase in LC3-2 protein level at 10 uM after 24 hrs in presence of chloroquine by Western blot analysis; format: functional, cell-based
HT-1080 = assay: Induction of autophagosome formation in HT-1080 cells assessed as increase in LC3 puncta at 10 uM after 24 hrs by Alexa Fluor 488 staining based fluorescence microscopic analysis; format: functional, cell-based; details: Homo sapiens
HeLa [7] = assay: Inhibition of autophagy in human HeLa cells assessed as decrease in cathepsin B at 10 nM after 24 hrs by immunoblot analysis; format: functional, cell-based
HeLa [8] = assay: Inhibition of autophagy in human HeLa cells assessed as increase in P62 protein level at 1 to 20 uM after 24 hrs by Western blot analysis; format: functional, cell-based; details: dose 1-20 µM
SK-MEL-28 = assay: Induction of autophagosome formation in SK-MEL-28 cells assessed as increase in LC3 puncta at 10 uM after 24 hrs by Alexa Fluor 488 staining based fluorescence microscopic analysis; format: functional, cell-based; details: Homo sapiens
HeLa [9] = assay: Modulation of autophagy in human HeLa cells assessed as increase in LC3-2 protein level at 10 uM after 24 hrs in presence of Baf A1 by Western blot analysis; format: functional, cell-based
HeLa [10] = assay: Modulation of autophagy in human HeLa cells assessed as increase in LC3-2 protein level at 1 to 20 uM after 24 hrs by Western blot analysis; format: functional, cell-based; details: dose 1-20 µM
HeLa [11] = assay: Antiproliferative activity against human HeLa cells assessed as cell viability at 10 uM after 24 hrs by MTT assay relative to control; format: functional; details: read-out: Activity
HeLa [12] = assay: Induction of autophagosome formation in human HeLa cells assessed as increase in LC3 puncta at 10 uM after 24 hrs by Alexa Fluor 488 staining based fluorescence microscopic analysis; format: functional, cell-based
HeLa [13] = assay: Inhibition of autophagy in human HeLa cells assessed as increase in P62 protein level at 10 uM after 24 hrs in presence of Baf A1 by Western blot analysis; format: functional, cell-based
HeLa [14] = assay: Induction of autophagosome formation in human HeLa cells assessed as increase in LC3 puncta at 10 uM after 6 hrs in presence of rapamycin by Alexa Fluor 488 staining based fluorescence microscopic analysis; format: functional, cell-based
HeLa [15] = assay: Induction of autophagosome formation in human HeLa cells assessed as increase in LC3 puncta at 10 uM after 24 hrs in presence of Baf A1 by Alexa Fluor 488 staining based fluorescence microscopic analysis; format: functional, cell-based
HeLa [16] = assay: Antiproliferative activity against human HeLa cells assessed as cell viability at 20 uM after 24 hrs by MTT assay relative to control; format: functional; details: read-out: Activity
HeLa [17] = assay: Inhibition of autophagy in human HeLa cells assessed as increase in P62 protein level at 10 uM after 24 hrs in presence of chloroquine by Western blot analysis; format: functional, cell-based
HeLa [18] = assay: Antiproliferative activity against human HeLa cells assessed as cell viability at 1 uM after 24 hrs by MTT assay relative to control; format: functional; details: read-out: Activity

CO/C1=C\C(C)=C\[C@@H](C)[C@@H](O)[C@@H](C)C/C(C)=C/C=C/[C@H](OC)[C@@H]([C@@H](C)[C@@H](O)[C@H](C)[C@@]2(O)C[C@@H](O)[C@H](C)[C@@H](C(C)C)O2)OC1=O
inhibition (HeLa [1]): Active
Activity (HeLa [2]): Active
inhibition (HeLa [3]): inactive

CO[C@H]1C[C@@H]2CC[C@@H](C)[C@@](O)(O2)C(=O)C(=O)N2CCCC[C@H]2C(=O)O[C@H]([C@H](C)C[C@@H]2CC[C@@H](O)[C@H](OC)C2)CC(=O)[C@H](C)/C=C(\C)[C@@H](O)[C@@H](OC)C(=O)[C@H](C)C[C@H](C)/C=C/C=C/C=C/1C
Activity (HeLa [4]): Active

CCN(CC)CCCC(C)Nc1ccnc2cc(Cl)ccc12 (stereo unspecified)
inhibition (HeLa [5]): Active

C1=C\C/C=C\CC[C@@]23CN(CC/C=C\C/1)C[C@H]1C/C4=C/C/C=C\CCCCN(C2)[C@@H]4C[C@H]13
inhibition (HeLa [6]): Active
Activity (HT-1080): Active
inhibition (HeLa [7]): Active
inhibition (HeLa [5]): Active
inhibition (HeLa [8]): Active
Activity (SK-MEL-28): Active
inhibition (HeLa [9]): Active
Activity (HeLa [10]): Active
viability at 10 µM (HeLa [11]): 2.9%
Activity (HeLa [12]): Active
inhibition (HeLa [13]): Active
Activity (HeLa [14]): inactive
Activity (HeLa [15]): Active
viability at 20 µM (HeLa [16]): 1.4%
inhibition (HeLa [17]): Active
viability at 1 µM (HeLa [18]): 95.2%
